This note sets out measurements from PubChem BioAssay AID463206 (Broad Institute, 2010).

The source made the active and inactive calls.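 How the source made its calls: active means caspase luminescence falls with dose and the half-maximal concentration AC50 from the fitted curve is at or below a set limit; inconclusive means flat fit at 30 to 70% signal loss, or invalid fit; inactive means AC50 above the limit, or signal rises instead.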

This test has as its system INS-1E cytokine-induced caspase-3/7, Caspase-Glo luminescence, 48 h. The test can be described thus: suppression of cytokine-driven beta-cell apoptosis – INS-1E rat cells, luminescence, orthogonal assay for beta-cell apoptosis protection project, dose response (AID 463206).
As a reminder, the AC50 is the concentration giving half of the maximal activity seen. Turning to `Cc1cc(N)c2cc(NC(=O)/C=C/c3ccccc3Cl)ccc2n1`, the AC50 is 23 µM.
As for `Cc1cc(C)n2nc(SCc3nnc(SCc4ccccc4C)s3)nc2n1`, the AC50 was > 26 µM (inactive).
With `COc1cc(CN2CCN(c3cc(C)ccc3C)CC2)ccc1O`, the AC50 is > 26 µM (inactive).
In the case of `COc1ccc2c(c1)C(=O)[C@@H](O)[C@H](c1ccc(OC)c(Br)c1)O2` it was > 26 µM (inactive); in that of `N=c1c2c(n(Cc3cccc(Cl)c3)c3c1CCC3)CCCC2`, > 26 µM (inactive); in that of `Clc1ccc(C[n+]2c(-c3ccccc3)cc(-c3ccccc3)cc2-c2ccccc2)cc1`, > 12 µM (inactive).
In the case of `N=c1c2c(n(Cc3ccc(Cl)c(Cl)c3)c3c1CCC3)CCCC2` it was > 26 µM (inactive); in that of `CC1(C(=O)OCC(=O)N2c3ccccc3Sc3ccccc32)CC1(Cl)Cl` (stereo not given), > 26 µM (inactive).
Under `COc1cc(CSc2nnnn2-c2ccc(C)cc2)cc(OC)c1OC` stands > 26 µM (inactive).
Consider `O=C(c1ccccc1)C(CN1CCCC1)c1ccccc1` (stereo not given), for which the AC50 is > 26 µM (inactive).
Take `C/C(=N\NC(=O)c1cccc(Br)c1)c1ccccn1`: the AC50 is > 26 µM (inactive).
On to `O=C(N/N=C\c1c(O)ccc2ccccc12)c1ccc(S(=O)(=O)N2CCCCC2)cc1`, for which the AC50 is > 26 µM (inactive).
Under `Cc1ccc(S(=O)(=O)Nc2ccccc2C(=O)Nc2nc(-c3ccc(F)cc3)cs2)cc1` stands > 26 µM (inactive).
In the case of `Fc1ccc(Oc2nc(-c3ccccn3)nc3ccccc23)cc1` it was > 26 µM (inactive).
In the case of `CCC(CO)Oc1cc(NCc2ccc(C(C)(C)C)cc2)c2ncn(C(C)C)c2c1` (stereo not given) it was > 26 µM (inactive).
Consider `COC(=O)c1ccc2c(c1)C(C)(C)C(/C=C/c1ccc(OC)c(OC)c1OC)=[N+]2C`, for which the AC50 is > 26 µM (inactive).
In the case of `CC1=NN(c2nc3ccccc3[nH]2)C(=O)/C1=C/N(C)C` it was > 26 µM (inactive); in that of `Oc1ccc(N=Nc2ccccc2C(F)(F)F)c2cccnc12`, > 26 µM (inactive).
Under `Cc1cc(S(=O)(=O)NCc2ccncc2)c(C)cc1Br` stands > 26 µM (inactive).
Under `COc1cc2cc(C(=O)N3CCOCC3)cc(-c3ccc(C)cc3)c2cc1OC` stands > 26 µM (inactive); under `CCOc1cccc(/C=N/NC(=O)c2cc(C3CC3)[nH]n2)c1O`, > 26 µM (inactive).
In the case of `C#CC(=O)N(c1cccc(OC)c1)C(C(=O)NC1CCCC1)c1cccs1` (stereo not given), the AC50 was > 26 µM (inactive).
In the case of `CC(=O)NC(C)c1cc(Cl)c2cccnc2c1O` (stereo not given) it was > 26 µM (inactive); in that of `O=C(N/N=C/c1ccc(O)cc1O)c1ccc(CN2C(=O)c3cccc4cccc2c34)cc1`, > 26 µM (inactive); in that of `CCCCOc1ncnc2c1[nH]c1ccc(F)cc12`, > 26 µM (inactive).
Under `O=C(/C(=C/c1ccc(Cl)cc1)c1nc2ccccc2[nH]1)c1cccs1` stands > 26 µM (inactive); under `CCC(=O)NC(c1cc(Cl)c2cccnc2c1O)C1CC1` (stereo not given), > 26 µM (inactive).
Under `CC(=O)N(C)C1=C(N2CCOCC2)C(=O)c2ccccc2C1=O` stands > 26 µM (inactive); under `Cc1cc(C)c2nc(NNC(=O)c3ccc(S(=O)(=O)N4CCCC(C)C4)cc3)sc2c1` (stereo not given), > 26 µM (inactive); under `Cc1ccccc1CNc1ccc(C(CC(N)=O)NC(=O)c2ccc(Br)cc2)cc1[N+](=O)[O-]` (stereo not given), > 26 µM (inactive).
For the compound `O=C(Nc1ccccc1Cl)/C(Cl)=C(\Cl)S(=O)c1ccccc1` (stereo not given), the AC50 was > 26 µM (inactive).
In the case of `Cc1ccc(-c2nc(NC(=O)c3nn(C)cc3[N+](=O)[O-])sc2C)cc1C` it was > 26 µM (inactive); in that of `COc1ccc(CNCCC(c2ccc(OC(C)C)cc2)c2ccccc2OC)cc1` (stereo not given), > 26 µM (inactive); in that of `COc1ccc(C2NCCc3c2[nH]c2ccccc32)cc1COc1ccc(F)cc1` (stereo not given), > 26 µM (inactive).
Under `C/C(=N\NC(=O)c1ccccc1NC(=O)c1ccc(Cl)cc1)c1ccncc1` stands > 26 µM (inactive); under `O=C(Nc1cc(Sc2ccccn2)cc([N+](=O)[O-])c1)c1ccc(Cl)cc1`, > 26 µM (inactive); under `CC(=O)Oc1c(I)cc(I)cc1C(=O)Nc1ccc(Cl)cc1`, > 26 µM (inactive).
Regarding `CCCCCCc1cc2cc(C(=O)Nc3cccc(OC)c3)c(=O)oc2cc1O`, the AC50 is > 26 µM (inactive).
Under `CC1=[N+](C)c2ccc3ccccc3c2C1(C)C` stands > 26 µM (inactive); under `CC(NC(=S)NC1CCCCC1)c1ccc(C(C)(C)C)cc1` (stereo not given), > 26 µM (inactive).
In the case of `O=C(CCl)N(c1ccccc1)C1CCCCC1` it was > 26 µM (inactive); in that of `CCCOc1nc2c(c(=O)n(C)c(=O)n2C)n1Cc1cccc2ccccc12`, > 26 µM (inactive).
On to `NC(=S)N/N=C/c1c(O)ccc2ccccc12`, for which the AC50 was > 26 µM (inactive).
As for `C=C1C(=O)O[C@@H]2C[C@@H](C)[C@@H]3C4OC4C(=O)[C@@]3(C)[C@@H](O)[C@H]12` (stereo not given in full), the AC50 is > 26 µM (inactive).
As to `Clc1ccc(C(c2ccc(Cl)cc2)n2cc[n+](CC(OCc3ccc(Cl)cc3Cl)c3ccc(Cl)cc3Cl)c2)cc1` (stereo not given), the AC50 was > 26 µM (inactive).
Under `Cc1nn(C)c(C)c1CN(C)S(=O)(=O)c1ccc2ccccc2c1` stands > 26 µM (inactive); under `CNc1nc(N/N=C/c2cc3c(cc2[N+](=O)[O-])OCO3)nc(Nc2ccccc2)n1`, > 26 µM (inactive); under `C/C(=N\NC(=O)c1cc(C)nc2ccccc12)c1ccccn1`, > 26 µM (inactive).
In the case of `Cc1nn(-c2nc3ccccc3[nH]2)c(=O)c2ccccc12` it was > 26 µM (inactive); in that of `COc1ccc(C(=O)NC(=S)NNC(=O)c2cnccn2)cc1OC`, > 26 µM (inactive); in that of `C#CCOCCOCCOCCNc1nc(N2CCN(C(=O)CCCCCCCCCCNC(=O)[C@H]([C@@H](C)CC)n3cc(CCCCCN)nn3)CC2)nc(N2CCN(C(=O)CCCCCCCCCCNC(=O)[C@@H]([C@H](C)O)n3cc(C)nn3)CC2)n1`, > 26 µM (inactive).
Under `CCCCN(C)CCNC(=O)c1cc2c(-c3ccccc3F)nn(C)c2s1` stands > 12 µM (inactive); under `Cc1ccc(-c2cn(-c3ccccc3)c3[n+]2CCCS3)cc1`, > 26 µM (inactive).
As to `O=c1c(Cl)c2oc3ccccc3nc-2c2ccccc12`, the AC50 was > 26 µM (inactive).
With `Nc1cc2c3c(cccc3c1)C(=O)N(CCN1CCCC1)C2=O`, the AC50 was 15.4 µM.
As for `CCN1/C(=C/c2cccc[n+]2C)Sc2ccc(OC)cc21`, the AC50 was > 26 µM (inactive).
Under `NC1=NC[C@@H](CC2CCCCC2)N1CCc1cc(C(F)(F)F)cc(C(F)(F)F)c1` stands > 26 µM (inactive); under `CCCCC[n+]1ccn(C2=C([O-])c3ccccc3C(=O)/C2=N\S(=O)(=O)c2ccccc2)c1`, > 26 µM (inactive); under `Oc1cccc(/C=N/NC(=S)Nc2cccnc2)c1O`, > 26 µM (inactive).
In the case of `O=C(c1ccc([N+](=O)[O-])s1)N1CCN(c2cccc(Cl)c2)CC1` it was > 26 µM (inactive); in that of `COc1ccccc1NCC(=O)N1CCN(S(=O)(=O)c2ccccc2)CC1`, > 26 µM (inactive).
In the case of `CCCOc1cc(NCc2ccccc2)c2ncn(C(C)C)c2c1` it was > 26 µM (inactive); in that of `COc1ccccc1NS(=O)(=O)c1cccc(NC(=O)c2[nH]c(C)c(C(C)=O)c2C)c1`, > 26 µM (inactive).
On to `Cc1ccc(NC(=O)c2cc(S(=O)(=O)NCCC3=CCCCC3)ccc2F)cc1`, for which the AC50 was > 26 µM (inactive).
In the case of `Cc1cc(Cl)c(S(=O)(=O)N2CCN(c3ccc(F)cc3)CC2)cc1OCC(=O)NC1CCCCC1`, the AC50 was > 26 µM (inactive).
In the case of `Cc1cc(C)c2nc(NNC(=O)c3ccc(S(=O)(=O)N4CCc5ccccc5C4)cc3)sc2c1` it was > 26 µM (inactive).
`CC(C)C[C@H]1CN=C(Nc2ccccc2)N1CC1CCC(C(C)(C)C)CC1` (stereo not given in full): the AC50 was > 26 µM (inactive).
Under `COc1nnc(-c2ccc(N3CCCCC3)c(NC(=O)C3CCCCC3)c2)c2ccccc12` stands > 26 µM (inactive); under `COc1ccc(/C=C/C(=O)c2ccncc2)c2ccccc12`, > 26 µM (inactive); under `CC(=O)NC(c1cc(Cl)c2cccnc2c1O)C1CC1` (stereo not given), > 26 µM (inactive).
Take `Cc1ccc(NC(=O)c2nc(S(=O)(=O)Cc3ccccc3)ncc2Cl)cc1`: the AC50 is > 26 µM (inactive).
Under `O=C(CNc1cccc2ccccc12)N/N=C/c1ccc([N+](=O)[O-])o1` stands > 26 µM (inactive); under `c1csc(-c2csc3ncnc(NCCCN4CCOCC4)c23)c1`, > 26 µM (inactive).
In the case of `CC(C)(C)c1cc(C(=O)N/N=C/c2ccc([N+](=O)[O-])s2)n[nH]1` it was > 26 µM (inactive); in that of `CC(=O)Nc1sc2c(c1-c1nc3ccccc3s1)CCN(C(C)C)C2`, 3.1 µM.
Under `COc1ccc(C(=O)NCC(=O)N/N=C/c2ccc([N+](=O)[O-])s2)cc1OC` stands > 26 µM (inactive); under `CCOc1ccc(-n2c(-c3ccc(Br)cc3)c[n+]3c2CCCCC3)cc1`, > 26 µM (inactive); under `Cc1ccccc1/C=C/C(=O)c1ccc([N+](=O)[O-])o1`, > 26 µM (inactive).
Turning to `Cc1cc(C)cc(OCCCn2ccnc2)c1`, the AC50 is > 26 µM (inactive).
Consider `CCN(CC)c1ccc(/C=N/Nc2nc(C)cc(C)n2)c(O)c1`, for which the AC50 was > 26 µM (inactive).
Under `Fc1ccc(C[n+]2c(-c3ccccc3)cc(-c3ccccc3)cc2-c2ccccc2)cc1` stands > 26 µM (inactive); under `COc1ccc2nc(C)cc(SCC(=O)N/N=C/c3ccc(O)cc3O)c2c1`, > 26 µM (inactive).
In the case of `N#C/C(=N\Nc1cccc([N+](=O)[O-])c1)C(=O)c1ccc(Br)cc1` it was > 26 µM (inactive).
Under `O=C(/C=C/c1ccc(F)cc1)NC(=S)NNC(=O)c1cnccn1` stands > 26 µM (inactive).
Turning to `COC(=O)c1cc(O)cc(OC)c1Oc1cc(C)cc(O)c1C(=O)O`, the AC50 is 3.06 µM.
